The values that follow come from patent US20230365582A1, “NOVEL COMPOUNDS HAVING INHIBITORY ACTIVITY ON PROSTAGLANDIN E2 RECEPTOR AND USES THEREOF” (KANAPH THERAPEUTICS INC., priority 2020, published 2023).

A word on the IC50: it is the concentration at which inhibition is half-maximal.

One experiment addresses T1, hEP4 (Homo sapiens, UniProt P35408).
T1 construct: expressed in transfected cells; host or cells: HEK293
Nature of the experiment: hEP4 cAMP assay. Type of experiment: cell-based. As to conditions: HEK293 cells overexpressing hEP4; PGE2 agonist 20 nM; graded per Table 21; read-out: IC50 (nM) EP4 cAMP. As to the method:
HEK293 cells overexpressing hEP4 were cultured in growth medium (GM: MEM (Gibco™, 11095080)/10% HI FBS (Gibco™, 10082147)/1% penicillin/streptomycin). Before the experiment, the growth medium was removed, and starvation medium (HBSS (Gibco™ 14025076)/10% GM) was added. Thereafter, the cells were incubated for 4 hours. HEK293 cells harboring hEP4 were detached from the culture dish with a non-enzymatic cell dissociation buffer (Gibco™, 15040066). The cells were resuspended in assay buffer (AB: HBSS, 0.1% BSA stabilizer, 0.5 mM IBMX, 5 mM HEPES).
(§1) 1,000 cells in 5 μL of AB were seeded per well in a 384 well plate (Corning®, 3570), and stock solutions of test compounds were prepared at a concentration of 1 mM in DMSO and serially diluted in DMSO to the concentration required for the inhibition dose response curve (test concentration range of 10 μM-0.001 nM). PGE2 (Sigma, P0409, stock solution: 100 μM) was used as an agonist at a final concentration of 20 nM corresponding to EC50-80. 2.5 μL of the diluted compound and 2.5 μL of PGE2 (20 nM final concentration) were transferred to the assay plate, and then the plate was incubated at room temperature for 18.5 minutes.
(§2) 5 μL of each donor (Eu-cAMP tracer) and acceptor (ULight-anti-cAMP) was added, and the plate was incubated in the dark for 1 hour at room temperature, and then a Varioskan LUX multimode microplate reader was used to obtain the results (excitation: 334 nm, emission: 615 and 665 nm). The resulting FRET fluorescence value (665 nm/615 nm*10000) was converted and then calculated as a percentage of cAMP compared to the DMSO control value. IC50 values and curves were generated with GraphPad Prism software using log (inhibitor) versus response-variable slope (4 parameters), and the median of multiple experiments was taken as the experiment result.
A general note: Cyclic AMP is a second messenger, typically raised through Gs and lowered through Gi signalling.

The target in the next experiment is T2, hEP2 (Homo sapiens, UniProt P43116).
T2 construct: expressed in transfected cells; host or cells: HEK293
In words: hEP2 cAMP assay. Format: cell-based. Conditions: HEK293 cells overexpressing hEP2; PGE2 agonist 400 pM; graded per Table 21; read-out: IC50 (nM) EP2 cAMP. As to the method: HEK293 cells overexpressing hEP2 were cultured in growth medium (GM: MEM (Gibco™, 11095080)/10% HI FBS (Gibco™, 10082147)/1% penicillin/streptomycin). Before the experiment, the growth medium was removed, and starvation medium (HBSS (Gibco™, 14025076)/10% GM) was added. Thereafter, the cells were incubated for 4 hours. The HEK293 cells harboring hEP2 were detached from the culture dish with a non-enzymatic cell dissociation buffer (Gibco™, 15040066). The cells were resuspended in assay buffer (AB: HBSS, 0.1% BSA stabilizer, 0.5 mM IBMX, 5 mM HEPES).
as §1, with “(Corning™,” for “(Corning®,”, “1” for “100”, “400 pM” for “20 nM”, “(400 pM” for “(20 nM”, “12” for “18.5”
as §2, with “relative” for “compared”, “slopes” for “slope”

T1 sequence (P35408 whole entry): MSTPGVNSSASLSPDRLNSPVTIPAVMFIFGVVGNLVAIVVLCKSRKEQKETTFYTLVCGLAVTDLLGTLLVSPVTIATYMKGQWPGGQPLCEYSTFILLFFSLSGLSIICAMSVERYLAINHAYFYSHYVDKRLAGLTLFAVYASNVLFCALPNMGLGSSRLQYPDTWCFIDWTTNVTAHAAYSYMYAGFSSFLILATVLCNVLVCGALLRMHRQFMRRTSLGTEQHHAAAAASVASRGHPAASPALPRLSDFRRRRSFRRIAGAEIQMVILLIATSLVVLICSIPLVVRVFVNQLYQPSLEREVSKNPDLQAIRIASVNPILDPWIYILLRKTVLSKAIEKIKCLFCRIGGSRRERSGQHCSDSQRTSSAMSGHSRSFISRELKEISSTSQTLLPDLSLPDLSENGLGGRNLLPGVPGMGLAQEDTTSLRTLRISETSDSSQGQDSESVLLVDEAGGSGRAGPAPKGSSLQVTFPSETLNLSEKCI
T2 sequence (P43116 whole entry): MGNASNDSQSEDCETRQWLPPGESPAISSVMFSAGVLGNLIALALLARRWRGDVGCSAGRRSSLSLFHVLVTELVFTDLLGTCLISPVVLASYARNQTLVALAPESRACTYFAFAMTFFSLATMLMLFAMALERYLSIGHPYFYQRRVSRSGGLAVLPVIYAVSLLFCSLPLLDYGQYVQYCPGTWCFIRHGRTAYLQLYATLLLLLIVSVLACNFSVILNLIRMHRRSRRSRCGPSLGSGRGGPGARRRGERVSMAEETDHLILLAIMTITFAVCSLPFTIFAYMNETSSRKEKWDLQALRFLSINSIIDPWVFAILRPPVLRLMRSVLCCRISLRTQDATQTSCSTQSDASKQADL

With `O=C(NC1CC2(C1)CC(C(=O)O)C2)c1c(Br)sc(Br)c1Cc1ccc(-c2ccccc2)cc1` (stereo not drawn) [Example 16, 6-(4-([1,1′-biphenyl]-4-ylmethyl)-2,5-dibromothiophene-3-carboxamido)spiro[3.3]heptane-2-carboxylic acid], the results for the IC50 on hEP4 and on hEP2 were 500 to 5000 nM and greater than 10000 nM, respectively.
Regarding `O=C(NC1CC2(C1)CC(C(=O)O)C2)c1c(Cl)sc(Cl)c1Cc1ccc(-c2ccccc2)cc1` (stereo not drawn) [Example 17, 6-(4-([1,1′-biphenyl]-4-ylmethyl)-2,5-dichlorothiophene-3-carboxamido)spiro[3.3]heptane-2-carboxylic acid], the values for the IC50 at hEP4 and on hEP2 were less than 500 nM and 5000 to 10000 nM, respectively.
The corresponding values for `O=C(NC1CC2(C1)CC(C(=O)O)C2)c1sccc1Cc1ccc(-c2ccccc2)cc1` (stereo not drawn) [Example 18, 6-(3-([1,1′-biphenyl]-4-ylmethyl)thiophene-2-carboxamido)spiro[3.3]heptane-2-carboxylic acid] are 500 to 5000 nM and 500 to 5000 nM.
The corresponding values for `COc1cc(F)cc(-c2ccc(Cc3ccsc3C(=O)NC3CC4(C3)CC(C(=O)O)C4)cc2)c1` (stereo not drawn) [Example 19, 6-(3-((3′-fluoro-5′-methoxy-[1,1′-biphenyl]-4-yl)methyl)thiophene-2-carboxamido) spiro[3.3]heptane-2-carboxylic acid] are less than 500 nM and 500 to 5000 nM.
The corresponding values for `Cc1scc(C(=O)NC2CC3(C2)CC(C(=O)O)C3)c1Cc1ccc(-c2ccccc2)cc1` (stereo not drawn) [Example 20, 6-(4-([1,1′-biphenyl]-4-ylmethyl)-5-methylthiophene-3-carboxamido)spiro[3.3]heptane-2-carboxylic acid] are less than 500 nM and 500 to 5000 nM.
With `O=C(NC1CC2(C1)CC(C(=O)O)C2)c1csc(-c2ccccc2)c1Cc1ccc(-c2ccccc2)cc1` (stereo not drawn) [Example 21, 6-(4-([1,1′-biphenyl]-4-ylmethyl)-5-phenylthiophene-3-carboxamido)spiro[3.3] heptane-2-carboxylic acid], the IC50 at hEP4 and on hEP2 was greater than 10000 nM in each case.
As for `O=C(NC1CC2(C1)CC(C(=O)O)C2)c1csc(C2CC2)c1Cc1ccc(-c2ccccc2)cc1` (stereo not drawn) [Example 22], the IC50 at hEP4 and at hEP2 was 500 to 5000 nM in each case.
Turning to `Cc1sc(C)c(C(=O)NC2CC3(C2)CC(C(=O)O)C3)c1Cc1ccc(Cl)cc1` (stereo not drawn) [Example 23, 6-(4-(4-chlorobenzyl)-2,5-dimethylthiophene-3-carboxamido)spiro[3.3]heptane-2-carboxylic acid], the IC50 on hEP4 and at hEP2 was greater than 10000 nM in each case.
On to `COc1ccccc1-c1ccc(Cc2c(C)sc(C)c2C(=O)NC2CC3(C2)CC(C(=O)O)C3)cc1` (stereo not drawn) [Example 24, 6-(4-((2′-methoxy-[1,1′-biphenyl]-4-yl)methyl)-2,5-dimethylthiophene-3-carboxamido)spiro[3.3] heptane-2-carboxylic acid], for which the IC50 at hEP4 is 500 to 5000 nM; on hEP2 it was greater than 10000 nM.
For `Cc1sc(C)c(C(=O)NC2CC3(C2)CC(C(=O)O)C3)c1Cc1ccc(-c2ccccc2O)cc1` (stereo not drawn) [Example 25, 6-(4-((2′-hydroxy-[1,1′-biphenyl]-4-yl)methyl)-2,5-dimethylthiophene-3-carboxamido)spiro[3.3] heptane-2-carboxylic acid], the IC50 was 5000 to 10000 nM on hEP4 and greater than 10000 nM at hEP2.
The matching figures for `Cc1sc(C)c(C(=O)NC2CC3(C2)CC(C(=O)O)C3)c1Cc1ccc(-c2ccncc2)cc1` (stereo not drawn) [Example 26, 6-(2,5-dimethyl-4-(4-(pyridin-4-yl)benzyl)thiophene-3-carboxamido)spiro[3.3]heptane-2-carboxylic acid]: 500 to 5000 nM and greater than 10000 nM.
The corresponding values for `Cc1sc(C)c(C(=O)NC2CC3(C2)CC(C(=O)O)C3)c1Cc1ccc(-c2cccnc2)cc1` (stereo not drawn) [Example 27, 6-(2,5-dimethyl-4-(4-(pyridin-3-yl)benzyl)thiophene-3-carboxamido)spiro[3.3]heptane-2-carboxylic acid] are 500 to 5000 nM and greater than 10000 nM.
Consider `Cc1ccc(-c2ccc(Cc3c(C)sc(C)c3C(=O)NC3CC4(C3)CC(C(=O)O)C4)cc2)cc1C` (stereo not drawn) [Example 28, 6-(4-((3′,4′-dimethyl-[1,1′-biphenyl]-4-yl)methyl)-2,5-dimethylthiophene-3-carboxamido)spiro[3.3]heptane-2-carboxylic acid], for which the IC50 is less than 500 nM at hEP4 and 500 to 5000 nM at hEP2.
The matching figures for `COc1cccc(-c2ccc(Cc3c(C)sc(C)c3C(=O)NC3CC4(C3)CC(C(=O)O)C4)cc2)c1` (stereo not drawn) [Example 29, 6-(4-((3′-methoxy-[1,1′-biphenyl]-4-yl)methyl)-2,5-dimethylthiophene-3-carboxamido)spiro[3.3]heptane-2-carboxylic acid]: less than 500 nM and 500 to 5000 nM.
Take `Cc1sc(C)c(C(=O)NC2CC3(C2)CC(C(=O)O)C3)c1Cc1ccc(-c2cccc(C#N)c2)cc1` (stereo not drawn) [Example 30]: the half-maximal inhibitory concentration (IC50) at hEP4 was less than 500 nM; on hEP2, greater than 10000 nM.
Regarding `CCc1ccc(-c2ccc(Cc3c(C)sc(C)c3C(=O)NC3CC4(C3)CC(C(=O)O)C4)cc2)cc1` (stereo not drawn) [Example 31, 6-(4-((4′-ethyl-[1,1′-biphenyl]-4-yl)methyl)-2,5-dimethylthiophene-3-carboxamido)spiro[3.3]heptane-2-carboxylic acid], the figures for the IC50 at hEP4 and on hEP2 were less than 500 nM and 5000 to 10000 nM, respectively.
The corresponding values for `Cc1sc(C)c(C(=O)NC2CC3(C2)CC(C(=O)O)C3)c1Cc1ccc(C2=CCCCC2)cc1` (stereo not drawn) [Example 32, 6-(2,5-dimethyl-4-((2′,3′,4′,5′_ tetrahydro-[1,1′-biphenyl]-4-yl)methyl)thiophene-3-carboxamido)spiro[3.3]heptane-2-carboxylic acid] are 500 to 5000 nM and greater than 10000 nM.
`Cc1sc(C)c(C(=O)NC2CC3(C2)CC(C(=O)O)C3)c1Cc1ccc(-c2ccoc2)cc1` (stereo not drawn) [Example 33, 6-(4-(4-(furan-3-yl)benzyl)-2,5-dimethylthiophene-3-carboxamido)spiro[3.3]heptane-2-carboxylic acid]: the IC50 was less than 500 nM at hEP4 and 500 to 5000 nM on hEP2.
The matching figures for `COc1cc(F)cc(-c2ccc(Cc3c(C)sc(C)c3C(=O)NC3CC4(C3)CC(C(=O)O)C4)cc2)c1` (stereo not drawn) [Example 34, 6-(4-((3′-fluoro-5′-methoxy-[1,1′-biphenyl]-4-yl)methyl)-2,5-dimethylthiophene-3-carboxamido)spiro[3.3]heptane-2-carboxylic acid]: less than 500 nM and 500 to 5000 nM.
The matching figures for `Cc1sc(C)c(C(=O)NC2CC3(C2)CC(C(=O)O)C3)c1Cc1ccc(-c2ccc(S(C)(=O)=O)cc2)cc1` (stereo not drawn) [Example 35, 6-(2,5-dimethyl-4-((4′-(methylsulfonyl)-[1,1′-biphenyl]-4-yl)methyl)thiophene-3-carboxamido)spiro[3.3]heptane-2-carboxylic acid]: 5000 to 10000 nM and greater than 10000 nM.
The matching figures for `Cc1sc(C)c(C(=O)NC2CC3(C2)CC(C(=O)O)C3)c1Cc1ccc(-c2ccc(C(=O)OC(C)(C)C)cc2)cc1` (stereo not drawn) [Example 36, 6-(4-((4′-(tert-butoxycarbonyl)-[1,1′-biphenyl]-4-yl)methyl)-2,5-dimethylthiophene-3-carboxamido)spiro[3.3]heptane-2-carboxylic acid]: less than 500 nM and 5000 to 10000 nM.
